The values that follow come from US11590093B2, “Kit, composition, and combination therapy for fragile X syndrome” (priority 2018, dated 2023).

What all share (settings): osmotic minipumps s.c. 15 days, sulindac 5 mg/kg, metoprolol 10 mg/kg, ibudilast 3 mg/kg, sertraline 1 mg/kg, quercetin 1 mg/kg (100 mg/kg in combination), cannabidiol 5 mg/kg
Test [1] relates to Fmr1 KO2 mice. The test can be described thus: Open field (hyperactivity, locomotor activity). In kind it is in vivo. An excerpt:
(§1) The Fmr1 KO2 it is both, protein and mRNA null. In this study we used Fmr1 KO2 and wild-type (WT) littermates generated on a C57BL/6J background and repeatedly backcrossed onto a C57BL/6J background for more than eight generations.
(§2) There were four treatment groups per compound/compound combination in the study with 10 male mice used per treatment group (all at 8 weeks of age): Group 1: Fmr1 KO2 mice treated with vehicle (Fmr1 KO2-V), Group 2: wild-type littermate mice treated with vehicle (WT-V), Group 3: Fmr1 KO2 mice treated with compounds (Fmr1 KO—[name of drug(s)]) and Group 4: wild-type littermate mice treated with compounds (WT—[name of drug(s)]).
The open-field apparatus was used to test hyperactivity. The apparatus was a gray PVC-enclosed arena […] divided into a 10×10 cm grid. Mice were brought to the experimental room 5-20 min before testing. A mouse was placed into a corner square facing the corner and observed for 3 min. The number of squares entered by the whole body (locomotor activity) were counted. The movement of the mouse around the field was recorded with a video tracking device for 3 min (version NT4.0, Viewpoint).

Test [2] relates to Fmr1 KO2 mice.
Text: as §1, §2
The dependent measure used in contextual fear conditioning was a freezing response following a pairing of an unconditioned stimulus (foot shock), with a conditioned stimulus, a particular context. Freezing is a species-specific response to fear, which has been defined as “absence of movement except for respiration”. This may last for seconds to minutes depending on the strength of the aversive stimulus, the number of presentations, and the degree of learning achieved by the subject. Testing involved placing the animal in a novel environment (dark chamber), providing an aversive stimulus (a 1-sec electric shock, 0.2 mA, to the paws), and then removing it.

The subject of test [3] is Fmr1 KO2 mice. Put plainly: Social interaction, three-chambered sociability task. Format: in vivo.
Description: In the three-chambered sociability task, a subject mouse was evaluated for its exploration of a novel social stimulus (novel mouse). The three-chambered social approach task monitors direct social approach behaviors when a subject mouse is presented with the choice of spending time with either a novel mouse or an empty cup. Sociability is defined as the subject mouse spending more time in the chamber containing the mouse than in the empty chamber. Preference for social novelty is defined as spending more time in the chamber with the novel mouse. The apparatus is a rectangular three-chamber box, where each chamber measures 20 cm (length)×40.5 cm (width)×22 cm (height). Dividing walls are made from clear perplex, with small openings (10 cm width×5 cm height) that allow access into each chamber. The three chamber task was lit from below (10 lux). The mice were allowed to freely explore the three-chamber apparatus over three 10 min trials. During the trial one wire cup was placed upside down in one of the side chambers and a novel mouse was placed under another wire cup in the other side chamber (novel mouse stimulus), leaving the middle chamber empty. The location of the novel mouse across trials was counterbalanced to minimize any potential confound due to a preference for chamber location. The time spent exploring the novel mice was scored as exploration ratio.
The subject of test [4] is Fmr1 KO2 mice.
Text: as §1, §2
The test was performed in individual cages. Normal bedding covered the floor to a depth of 0.5 cm. Each cage was supplied with a “Nestlet,” a 5 cm square of pressed cotton batting (Ancare). Mice were placed individually into the nesting cages 1 hr. before the dark phase, and the results were assessed the next morning. Nest building was scored on a 5 point scale.
Score 1: The Nestlet was largely untouched (>90% intact).
Score 2: The Nestlet was partially torn up (50-90% remaining intact).
Score 3: The Nestlet was mostly shredded but often there was no identifiable nest site: <50% of the Nestlet […]
This is another data set of the same source.

“Also recorded” adds a separate entry of the source.

Turning to `COCCc1ccc(OCC(O)CNC(C)C)cc1.O=C(O)C(O)C(O)C(=O)O` (racemic) [metoprolol, (±) 1-(Isopropylamino)-3-[p-(β-methoxyethyl)phenoxy]-2-propanol (+)-tartrate salt], the “Open field: hyperactivity” value in test [1] is listed as “normalized Fmr1 KO2 mice hyperactivity; also recorded: normalize hyperactivity”. Moreover, the “Contextual fear conditioning (learning and memory)” value (from here on “Contextual fear conditioning”) in test [2] is given as “fails to improve the learning deficits”. Also, the “Sociability (exploration of novel mouse)” value in test [3] is “No significant difference was found in sociability; also recorded: partially rescue nesting behavior and sociability”. Also, the Nesting behavior result in test [4] was “partially rescued; also recorded: partially rescue nesting behavior and sociability”.
For the compound `O=c1c(O)c(-c2ccc(O)c(O)c2)oc2cc(O)cc(O)c12` [quercetin], the “Contextual fear conditioning” value in test [2] is listed as “neither sulindac nor quercetin alone fully rescues fear conditioning”.
For the compound `CN[C@H]1CC[C@@H](c2ccc(Cl)c(Cl)c2)c2ccccc21` [sertraline], in test [2], the “Contextual fear conditioning” value is “neither sulindac nor sertraline alone rescues sociability or fear conditioning”. In test [3], the “Sociability (exploration of novel mouse)” value is given as “neither sulindac nor sertraline alone rescues sociability or fear conditioning”.
On to `CC1=C(CC(=O)O)c2cc(F)ccc2/C1=C\c1ccc([S+](C)[O-])cc1` (stereo not drawn) [sulindac, (Z)-5-fluoro-2-methyl-1-[[p-(methylsulfinyl)phenyl]methylene]-1H-indene-3-acetic acid], for which the “Open field: hyperactivity” value in test [1] is “normalizes hyperactivity; also recorded: fully rescuing open field and nesting behavior”. Moreover, the “Contextual fear conditioning” value in test [2] is “ameliorates the Fmr1 KO deficit in learning and memory; also recorded: partially rescuing contextual fear conditioning and sociability; also recorded: neither sulindac nor sertraline alone rescues sociability or fear conditioning; also recorded: neither sulindac nor quercetin alone fully rescues fear conditioning”. Moreover, the “Sociability (exploration of novel mouse)” value is “partially rescuing contextual fear conditioning and sociability; also recorded: neither sulindac nor ibudilast alone rescues sociability; also recorded: neither sulindac nor sertraline alone rescues sociability or fear conditioning” in test [3]; “partially improved such impairment” in test [3] (listed as Sulindac). In test [4], the Nesting behavior entry was “normalization in nesting behavior; also recorded: fully rescuing open field and nesting behavior”.
